From patent US6015560A, “Antibody recognizing endothelial cell ligand for leukocyte CR3” (priority 1995, dated 2000)

Columns and labels:
[1] = test system: human umbilical vein endothelial cells; experiment: Adherence of neutrophils to cultured (TNF-stimulated) endothelial cells; assay type: cell-based; conditions: peptides 0.5 mM
Protocol: (§1) Human umbilical vein endothelial cells (HUVEC, first passage, Clonetics, San Diego, Calif.) were subcultured at confluence into Terasaki tissue culture wells. After 24 hours, confluent monolayers were used for adherence assays. Monolayers were stimulated with 10 ng/ml TNF alpha (Boehringer Mannheim, Indianapolis, Ind.) at 37° C. for four hours. 30 μl of human neutrophils (10^6 /ml) were labeled with fluorescein by the method of Lo et al. (1991), J. Exp. Med. 173 1493-1500, and preincubated for 15 minutes at 37° C. with 20 μl of peptides (0.5 mM in HAP) or HAP (phosphate buffered saline containing 0.5 mg/ml human serum albumin, 3 mM glucose, and 0.3 U/ml aprotinin) as a control buffer. For some experiments, endothelial cells were pretreated from 10 minutes with Factor X or antibodies against Factor X receptor (EPR-1; Altieri et al. (1990), J. Immunol. 145, 246-253) 12H1 and 9D4 (obtained from Dr. D. Altieri, Scripps Research Institute, Lajolla, Calif.) and then washed. Neutrophils were allowed to adhere to the monolayer for 15 mins. at 37° C. and unbound cells were removed by submersion of the plate in PBS buffer. The number of adherent neutrophils was counted in a 40× microscope field and expressed as a percentage of adherence in control wells with neutrophils treated with HAP buffer alone. The mAb IB4 against CD18 (50 μg/ml; Merck Inc., Rahway, N.J.) served as a positive control.
(§2) The procedures for determining the neutrophil adherence to cultured endothelial cells and the transendothelial migration of neutrophils were identical with those of Example 9. Control values were the same as those shown in Example 9.

leukocytes in CSF = experiment: Rabbit meningitis model: leukocyte migration into CSF; assay type: in vivo; conditions: for mean leukocyte concentration in CSF: peptides 10 μM i.v.; for reduction of CSF leukocytosis: peptides 10 μM, FHA 0.1 μM
Protocol: (§3) The rabbit model was performed according to an established protocol. Specific pathogen free, New Zealand white rabbits (2 kg; Hare Marland, Nutley, N.J.) were anesthetized with valium (2.5 mg/kg, subcutaneously, Hoffman-LaRoche, Nutley, N.J.), ketamine (35 mg/kg, intramuscularly, Aveco, Fort Dodge, Iowa) and xylazine (5 mg/kg, intramuscularly, Miles Laboratories, Shawnee, Kans.) and a helmet of dental acrylic was affixed to the calvarium. Twenty four hours later, the rabbits were anesthetized with ethyl carbamate (1.75 g/kg; Aldrich Chemical Co., Milwaukee, Wis.) and pentobarbital (15 mg/kg; Abbott Laboratories, Abbott Park, Ill.) and placed in a stereotaxic frame. A spinal needle was introduced into the cisterna magna and 300 μl of CSF was withdrawn. The animals were challenged intracisternally with 10^8 heat killed, unencapsulated pneumococcus strain R6 introduced in 200 μl of saline (time 0). One hour later, animals were treated with peptides dissolved in 1 ml of saline by intravenous injection into the right marginal ear vein. The concentration of FHA was 0.1 μM and that of the FHA Ia, Factor X II, and scrambled FHA II peptides was 10 μM. For the acetyl-FHA II, acetyl/amide-FHA II, dimer of FHA II and trimer of FHA II peptides, the concentration was 10^-3 μM. The concentration of FHA II is given in the results section. Samples of CSF were withdrawn at hourly intervals after pneumococcal inoculation and leukocyte density was measured using a cell counter (Coulter Electronics Inc., Hialeah, Fla.). CSF samples were centrifuged at 10,000×g for 5 minutes and the supernatant was stored at -70° C. until assayed for protein concentration using the bicinchoninic acid method (BCA Kit, Pierce Chemical Co., Rockford, Ill.) and for lactate concentration (Lactate Detection Kit, Sigma, St. Louis, Mo.). Statistically significant differences between treatments were determined by a one way analysis of variance test.
The anti-inflammatory effects of the administered peptides were assessed in the rabbit model for meningitis by the procedures described in Example 10. The animals received 1 ml of 1 uM peptide intravenously. In a slight departure from the protocol described in Example 10, samples of blood were drawn from the left marginal ear vein 30 minutes after the administration of the peptides to determine peripheral leukocyte concentrations.

neutrophils = experiment: Transendothelial migration of neutrophils; assay type: cell-based, human; conditions: peptides 0.01 mM
Protocol: Transendothelial migration of neutrophils was studied based on a method described by Muller et al. (1992), J. Exp. Med. 176: 819-828. Briefly, human neutrophils suspended in ice-cold Hanks balanced salt solution (HBSS) containing Ca^++ and Mg^++ (Sigma) were fluoresceinated by adding 3.3 μl/ml 5-(and 6-)carboxyfluorescein diacetate, succinimidyl ester (CFSE, Molecular Probes Inc., Oreg.). After incubation for 30 mins. on ice, neutrophils were washed twice in cold HBSS with Ca^++ and Mg^++ and resuspended in cold Medium 199 (M199, Sigma) to a final concentration of 10^6 /ml. Human umbilical vein endothelial cells were subcultured at confluence into 96-well tissue culture plates (Becton Dickinson Labware, Lincoln Park, N.J.) that were coated with hydrated collagen gel (Vitrogen; Collagen Corporation, Palo Alto, Calif.) and fibronectin. Endothelial cells were stimulated with 10 ng/ml TNF-alpha for 4 hours and washed three times with warm M199. Neutrophils (10^6 /ml) were preincubated with 0.01 mM of peptides or with 1 μM of native FHA in M199 for 5 mins. on ice before they were added in 100 μl aliquots to the endothelial cells. For positive control, neutrophils were pre-incubated with 25 μg/ml anti-CD18 mAb IB4. For negative control, neutrophils were treated with 25 μg/ml mAb W6/32 against HLA class I antigen (Dako, Carpinteria, Calif.). The cells were incubated for 1 hour at 37° C., 5% CO2. To terminate transmigration, the supernatant fluid was aspirated and the wells were filled with warm 1 mM EGTA (Sigma) in HBSS without Ca and Mg. The plates were covered with plate sealers (Dynatech, Alexandria, Va.) and centrifuged in an inverted position at 250 g for 3 mins. at room temperature. To remove residual non-transmigrated neutrophils from the endothelial cells, monolayers were washed twice with 200 μl of warm Hanks solution without Ca and Mg. Fluorescence was quantitated using a fluorescence counter (Millipore Cytofluor™ 2300). The percentage of transmigrated neutrophils was determined by comparing the amount of fluorescence of test wells with that measured in collagen- and fibronectin-coated wells without endothelial cells. […] Percent inhibition of transendothelial migration of neutrophils was calculated by comparing the number of transmigrated cells in wells containing neutrophils treated with peptide to neutrophils treated with M199 alone and arbitrarily set at 100% transendothelial migration (TEM).
as §2

blood brain barrier = experiment: Rabbit meningitis model: CSF protein and lactate (blood brain barrier permeability); assay type: in vivo; conditions: 10 μM peptides, 0.1 μM FHA
Protocol: as §3
Loss of barrier function of the cerebral capillary endothelium during inflammation is reflected by an influx of serum proteins into the CSF. […] To examine if the peptides were able to ameliorate these measures of cerebral injury, CSF protein and lactate concentrations were measured hourly in peptide-treated and control animals (Table 10).
Leukocyte migration into the CSF in bacterial meningitis is associated with loss of barrier function of the cerebral capillary endothelium, resulting in influx of serum proteins into the CSF. To determine whether FHA peptides were able to prevent this leukocyte-dependent injury, protein concentrations in the CSF were measured throughout the course of inflammation in peptide-treated and control animals.

Factor Xa = experiment: Generation of Factor Xa by monocytes (THP-1 cells); assay type: cell-based; conditions: 0.5 mM; for reduction of Factor Xa production: 20 min
Protocol: Factor Xa generation was determined by a modification of the method of Miletich et al. (1978), J. Biol. Chem. 253: 6908-6916. THP-1 cells (ATCC; 3×10^7 /ml) resuspended in RPMI 1640 (Bio Whittaker, Walkersville, Md.) were incubated with 100 μM ADP (Sigma), 2.5 mM CaCl2, 1 or 5 μg/ml Factor X (Hematologic Technologies Inc.) and 0.5 mM peptides at room temperature. After 20 minutes, 100 μl of the reaction mixture was transferred to 37° C. and supplemented with 100 μl of bovine factor VII- and Factor X-deficient plasma (Sigma). Coagulation was initiated by adding 100 μl of 25 mM CaCl2 and the clotting time was determined. Factor Xa procoagulant activity (ng/ml) was calculated by means of a standard curve constructed by serial concentrations of Factor Xa (Hematologic Technologies Inc.) from 50 to 250 ng/ml.

endothelial cells = experiment: Cooperative inhibition of neutrophil adherence by peptide plus antibody; assay type: cell-based, human; conditions: for additive reduction of neutrophil adherence: together with IB4 (50 μg/ml)
Protocol: as §1
The ability of FHA peptides and anti-CD18 or anti-Factor X receptor antibodies to interact cooperatively to inhibit neutrophil adherence to endothelial cells was assessed by measuring neutrophil adherence to endothelial cells in the presence of antibody as well as antibody plus peptide. Anti-CD18 mAb IB4 was added to leukocytes at 10 μg/ml 10 min before the assay. Anti-Factor X receptor mAb 12H1 (10 μl of ascites) or 9D4 (10 μg/ml) were added to the endothelial cell monolayers 10 min before the assay. The peptides were added at 5 μg/ml. The results are shown in Table 8 where the numerical values are in % of control binding.

C3bi = experiment: Inhibition of binding of 12.1F9 to E-C3bi by peptides; set-up: species or system human; conditions: for block of binding of 12.1F9 to C3bi: e-c3bi on antibody-coated wells
Description: The antibody 12.1F9 maps to the region 1279-2011 of FHA. When the derived amino acid sequence of this region was compared to that of C3, a region of 11 amino acids with similar sequence was found between FHA residues 1408-1418 and C3 residues 1187-1197 (Table 14). […] However, the FHA-20-mer and the homologous C3-derived peptide blocked binding by up to 60%.

[2] = peptide 5 μg/ml plus 9D4 10 μg/ml
[3] = peptide 5 μg/ml plus 12H1 10 μl of ascites
[4] = peptide 5 μg/ml plus IB4 10 μg/ml

Substance: DEETVK [scrambled FHA II, reference compound]
- interference with neutrophil adherence (in words) [1]: did not interfere with neutrophil binding
- mean leukocyte concentration in CSF (leukocytes in CSF; 7 hours): 6431±1380 /μl CSF
- % Inhibition of TEM (neutrophils): 4 ± 5%

Substance: ETKEVDG [FHA II]
- protein influx into CSF and lactate generation (in words) (blood brain barrier): significantly reduced protein influx into the CSF and generation of lactate
- Factor Xa generation (in words) (Factor Xa): did not interfere with the generation of Factor Xa procoagulant activity
- anti-inflammatory effect (in words) (leukocytes in CSF; 10^-3 μM i.v.): ineffective
- mean leukocyte concentration in CSF (leukocytes in CSF; 7 hours): 2645±1412 /μl CSF
- leukocyte density vs control (in words) (leukocytes in CSF; 7 hours, 10^-1 μM): statistically significantly different from control
- reduction of CSF leukocytosis (leukocytes in CSF): > 60%
- % of control binding (endothelial cells; [2]): 45 ± 9 % of control binding
- % of control binding (endothelial cells; [3]): 67 ± 13 % of control binding
- % of control binding (endothelial cells; [4]): 11 ± 6 % of control binding
- % of control binding (endothelial cells; peptide 5 μg/ml, no antibody): 40 ± 23 % of control binding
- additive reduction of neutrophil adherence (endothelial cells): > 80±10%

Substance: GLIQGRSVKVD [FHA Ib]
- reduction of Factor Xa production (Factor Xa): 81%
- % Inhibition of TEM (neutrophils): 7 ± 10%

Substance: GLYQAKRFKVG [Factor X I, reference compound]
- Factor Xa generation (in words) (Factor Xa): substantial reduction that did not reach statistical significance

Substance: GRTRG [FHA III]
- reduction of Factor Xa production (Factor Xa): 74%
- interference with neutrophil adherence (in words) [1]: less effective than the corresponding Factor X derived peptide
- % Inhibition of TEM (neutrophils): 5 ± 6%

Substance: GYDTKQEDG [Factor X II, reference compound]
- protein influx into CSF and lactate generation (in words) (blood brain barrier): no significant reduction
- reduction of Factor Xa production (Factor Xa): > 90%
- mean leukocyte concentration in CSF (leukocytes in CSF; 7 hours): 1622±521 /μl CSF
- reduction of CSF leukocytosis (leukocytes in CSF): > 60%

Substance: IDRSMKTRG [Factor X III, reference compound]
- Factor Xa generation (in words) (Factor Xa): substantial reduction that did not reach statistical significance
- % Inhibition of TEM (neutrophils): 5 ± 7%

Substance: LGYQAK [FHA Ia]
- protein influx into CSF and lactate generation (in words) (blood brain barrier): no significant reduction
- interference with neutrophil adherence (in words) [1]: significantly more active than the Factor X peptide I
- mean leukocyte concentration in CSF (leukocytes in CSF; 7 hours): 1640±1210 /μl CSF
- reduction of CSF leukocytosis (leukocytes in CSF): > 60%
- % of control binding (endothelial cells; [2]): 63 ± 17 % of control binding
- % of control binding (endothelial cells; [3]): 64 ± 12 % of control binding
- % of control binding (endothelial cells; [4]): 20 ± 7 % of control binding
- % of control binding (endothelial cells; peptide 5 μg/ml, no antibody): 63 ± 12 % of control binding
- additive reduction of neutrophil adherence (endothelial cells): > 80±10%

Substance: VTVGRGDPHQG [FHA RGD]
- Adherence index (C3bi; peptides 50 μg/ml, normalized to a control value of 100): 85 ± 9

Substance: YTVAIAGYALA [C3-pep 1187-1197]
- block of binding of 12.1F9 to C3bi (C3bi): up to 60%

Substance: YTVSADAIALA (YTVAIAGYALA) [FHA 1408-1418]
- block of binding of 12.1F9 to C3bi (C3bi): up to 60%
